Data published in patent US7083799B1, “No-synthase inhibitors” (L'Oreal, priority 1995, dated 2006).

What was measured:
[1] = system: mouse ear oedema induced by 0.01% 2-(5,6,7,8-tetrahydro-5,5,8,8-tetramethyl-2-naphthyl)-6-benzo[b]thiophenecarboxylic acid; assay: mouse ear oedema test (ear thickness) induced by topical application of an irritant retinoid; assay type: in vivo, mouse (Balb/C); conditions: curative
Procedure: This increase in the thickness of the mouse ear appears to be due to an increase in the thickness of the epidermis and to the appearance of a dermal oedema. This response can therefore be easily measured with the aid of an apparatus, such as the oditest.
(§1) 5 (=group 2) of the 10 mice thus treated are made to ingest orally N^G-nitro-L-arginine methyl ester in drinking water from t=0 and once per day for 11 days (N^G-nitro-L-arginine methyl ester concentration of 1 mg/ml, that is to say 170±40 mg/kg per day).
[…] The 5 mice which were not treated with […] constitute group 1.

[2] = system: mouse ear oedema induced by 0.01% 2-(5,6,7,8-tetrahydro-5,5,8,8-tetramethyl-2-naphthyl)-6-benzo[b]thiophenecarboxylic acid; assay: as above; assay type: in vivo, mouse (Balb/C)
[3] = system: mouse ear; conditions: in vivo
Procedure: Next, there is topically applied to the ear of these 5 mice previously treated with N^G,N^G-dimethylarginine (group A) and to the ear of 5 untreated mice (group B), at time t=0, 20 μl of an acetone solution comprising 0.01% by weight of 2-(5,6,7,8-tetrahydro-5,5,8,8-tetramethyl-2-naphthyl)-6-benzo[b]thiophenecarboxylic acid. The oedematous response is quantified by measurement of the thickness of the ear.

[4] = observation of toxicity and weight change in mice given the inhibitor orally; assay type: in vivo, mouse (Balb/C); conditions: oral in drinking water 1 mg/ml (170±40 mg/kg per day), once per day for 11 days
Procedure: as §1

[5] = 1% by weight, topical from 6 hours after the irritant, once per day for 5 days
[6] = 5%, topical from 6 hours after the irritant, once per day for 5 days, curative
[7] = gel 1% by weight, topical once per day for 4 days before the irritant, preventive, group A vs group B

SMILES: C[N+](C)(C)CC(=O)O [betaine, reference compound]
- inhibition of the ear oedema [1, 5]: 9%
- reduction of the area under the curve of the response induced by the irritant product (ear thickness vs days) [1, 5]: 24%
- inhibition of the ear oedema [2, 6]: 16%
- reduction of the area under the curve of the response induced by the irritant product (ear thickness vs days) [2, 6]: 13%

SMILES: CN=C(NC)NCCC[C@H](N)C(=O)O [SDMA, N^G,N^G-dimethyl-L-arginine, reference compound]
- inhibition of the ear oedema [1, 5]: 7%
- reduction of the area under the curve of the response induced by the irritant product (ear thickness vs days) [1, 5]: 27%

SMILES: CNC(=N)NCCC[C@H](N)C(=O)O [L-NMMA, N^G-monomethyl-L-arginine]
- inhibition of the ear oedema [1, 5]: 28%
- reduction of the area under the curve of the response induced by the irritant product (ear thickness vs days) [1, 5]: 51%
- increase in the thickness of the mouse ear (maximum of group 1 without inhibitor = 100%) ([1]; gel 1% by weight, topical from 6 hours after the irritant, once per day for 5 days, after 5 days): 72%

SMILES: CN(C)C(N)=NCCC[C@H](N)C(=O)O [N^G,N^G-dimethylarginine]
- reduction of the amplitude of the response induced by the irritant product [2, 7]: 24%
- reduction of the area under the curve of the response induced by the irritant product (ear thickness vs days) [2, 7]: 50%
- increase in the thickness of the ear by the inhibitor gel alone [3]: No increase

SMILES: COC(=O)[C@@H](N)CCCNC(=N)N[N+](=O)[O-] [N^G-nitro-L-arginine methyl ester, methyl ester of N^G-nitro-L-arginine]
- increase in the thickness of the mouse ear (maximum of group 1 without inhibitor = 100%) ([1]; oral in drinking water 1 mg/ml (170±40 mg/kg per day) from t=0, once per day, after 5 days of treatment): 70%
- inhibition of the ear oedema ([1]; oral in drinking water 1 mg/ml (170±40 mg/kg per day) from t=0, after 5 days): 30%
- change in weight [4]: not modified
- sign of toxicity [4]: no sign of toxicity
